Source: paper PMC6277198, “Molecular basis for activation of lecithin:cholesterol acyltransferase by a compound that increases HDL cholesterol” (eLife, 2018)

Assays:
[1] = test system: LCAT Y51S, G71I, and Y51S/G71I variants; assay: Differential scanning fluorimetry; assay type: binding, human
Procedure: Tm values were determined using an Applied Biosystems QuantStudio 7 Flex qPCR machine with two replicates performed at least in triplicate. LCAT at 0.05 mg mL^−1 was diluted into reaction buffer containing 5X Sypro Orange in a final volume of 10 μL in 384-well PCR plates. DMSO or compound 1 was added so that all reactions contained 3% DMSO. The reactions were run from 25–95 °C with a ramp rate of 0.03 °C s^−1. Tm values were determined as the derivative using Protein Thermal Shift software. Significance was determined using a one-way analysis of variance followed by Tukey’s multiple comparisons post-test in GraphPad Prism.

LCAT R244H = molecular target: T1, LCAT R244H (Homo sapiens, UniProt P04180, R268H); assay: DHE acyltransferase assay with peptide-based HDLs; assay type: biochemical
T1 construct: hydrolysis of 4-methylumbelliferyl palmitate (MUP) by full-length LCAT; made in house; host or cells: HEK293F (transient transfection, secreted)
T1 sequence (P04180 25-440 R268H): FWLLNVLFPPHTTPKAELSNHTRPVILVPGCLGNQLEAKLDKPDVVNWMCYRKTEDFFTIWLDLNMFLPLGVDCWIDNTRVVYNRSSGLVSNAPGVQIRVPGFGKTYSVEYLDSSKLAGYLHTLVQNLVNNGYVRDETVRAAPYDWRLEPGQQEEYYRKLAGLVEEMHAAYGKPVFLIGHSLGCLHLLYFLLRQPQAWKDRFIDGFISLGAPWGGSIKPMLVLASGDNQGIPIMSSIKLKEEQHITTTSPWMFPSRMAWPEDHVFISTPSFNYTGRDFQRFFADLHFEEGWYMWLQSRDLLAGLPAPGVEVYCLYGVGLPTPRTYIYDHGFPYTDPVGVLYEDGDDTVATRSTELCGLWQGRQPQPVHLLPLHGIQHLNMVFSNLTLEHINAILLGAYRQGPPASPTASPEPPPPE
Procedure: Peptide-based HDLs were used in this assay as there is no difference between peptide HDLs and ApoA-I HDLs in both HDL binding and acyltransferase assays ([Manthei et al., 2017]). The peptide HDLs were made using the ESP24218 peptide with the sequence […] ([Dassuex et al., 1999]; [Li et al., 2015]) with a DPPC:POPC:DHE ratio of 47:47:6 as previously described ([Manthei et al., 2017]). The assay was performed in 384-well low volume black microplates (Corning 4514) with a total assay volume of 16 μL. In each reaction, LCAT was diluted in assay buffer to 15 μg mL^−1 in the presence of either 1% DMSO or 10 μM 2 with 1% DMSO. Compound 2 was used in this assay because it has lower background fluorescence than 1. The DHE HDLs were diluted in 1X PBS with 1 mM EDTA and 5 mM β-mercaptoethanol. 8 μL of the HDLs were added to the plate, and the reactions were initiated with 8 μL of LCAT, so that LCAT was assayed at 7.5 μg mL^−1 with and without 5 μM compound with a range of DHE concentrations from 0 to 50 μM. The reactions were stopped after 25 min at 37 °C with the addition of 4 μL of stop solution (1X PBS with 1 mM EDTA, 5 U mL^−1 cholesterol oxidase (COx), and 7% Triton X100). Following the addition of stop solution, the plates were incubated for another 60 min at 37 °C to allow for the COx to react. After the plates were re-equilibrated at room temperature, fluorescence was determined on a SpectraMax plate reader with excitation at 325 nm and emission at 425 nm, with a 420 nm cutoff. Reactions without LCAT were used for background subtraction, and reactions without LCAT and stop solution lacking COx were used to generate a standard curve for DHE. Reactions were performed in triplicate with three independent experiments per LCAT variant. Data were processed via background subtraction to remove excess fluorescence that results from the higher concentrations of DHE. […] Outliers were removed using automatic outlier elimination within Prism. For statistical analysis, the Vmax for each variant was compared to WT using a one-way analysis of variance followed by Tukey’s multiple comparisons post-test in GraphPad Prism.
To determine EC50 values, compound 2 was titrated from 0.004 to 10 μM, and the DHE concentration was set at 50 μM. LCAT was diluted in assay buffer and compound 2 dilutions were made with assay buffer containing 5.3% DMSO. 1.5 μL compound was added, then 6.5 μL LCAT, followed by 8 μL DHE. Dilutions were adjusted so that LCAT was assayed at 7.5 μg mL^−1, as above. All values were background subtracted to buffer with the same concentration of compound 2. A standard curve was included in one experiment with DHE from 0 to 50 μM in order to adjust the final fluorescence values to a rate by dividing by the slope of the line and time (25 min), as above. Outliers were removed using automatic outlier elimination within Prism. For statistical analysis, the EC50 for each variant was compared to WT using a one-way analysis of variance followed by Tukey’s multiple comparisons post-test in GraphPad Prism.

SMILES	Increase of Tm compared to WT (DSF) [1]	EC50 (LCAT R244H; compound 2 titrated from 0.004 to 10 μM, DHE 50 μM) [µM]	acyltransferase rate (LCAT R244H; highest concentration tested, 10 μM compound 2) [µM/h]
N#Cc1cnc(N2CCC(c3n[nH]c4c3C(O)(C(F)(F)F)CC(=O)N4)CC2)cc1C(F)(F)F (stereo not drawn) [compound 1, 6-(4-(4-Hydroxy-6-oxo-4-(trifluoromethyl)−4,5,6,7-tetrahydro-1H-pyrazolo[3,4-b]pyridin-3-yl)piperidin-1-yl)−4-(trifluoromethyl)nicotinonitrile]	far less effective		
O=C1CC(O)(C(F)(F)F)c2c(C3CCN(c4cnc(C(F)(F)F)cn4)CC3)n[nH]c2N1 (stereo not drawn) [compound 2, 4-Hydroxy-4-(trifluoromethyl)−3-(1-(5-(trifluoromethyl)pyrazin-2-yl)piperidin-4-yl)−4,5-dihydro-1H-pyrazolo[3,4-b]pyridin-6(7H)-one]		4.6 ± 2	26
